Results as given in the NIST ThermoML archive (doi:10.1016/j.fluid.2019.112241).
Several values for one entry are separate records, joined by “and”; a condition that tells them apart may be missing. Equal values may be shown once.

Settings: Liquid, Transpiration method

CC(=O)N(C)C [N,N-dimethylethanamide]
Settings | vapor or sublimation pressure
273.3 K | 0.03543 kPa and 0.03607 kPa and 0.035 kPa
274.7 K | 0.03924 kPa
275.9 K | 0.04222 kPa
276.5 K | 0.04528 kPa
276.9 K | 0.04668 kPa
277.3 K | 0.05063 kPa
278.2 K | 0.05175 kPa
278.6 K | 0.05303 kPa
279.7 K | 0.058 kPa
281.3 K | 0.06713 kPa and 0.07108 kPa
281.4 K | 0.06481 kPa
281.9 K | 0.06864 kPa
282.4 K | 0.07295 kPa
283 K | 0.07741 kPa
285.3 K | 0.0977 kPa
285.8 K | 0.09266 kPa
286.4 K | 0.09668 kPa
287.3 K | 0.1021 kPa
288.2 K | 0.1121 kPa
288.3 K | 0.1147 kPa
289.3 K | 0.1307 kPa
290.2 K | 0.1314 kPa
290.8 K | 0.1301 kPa
291.2 K | 0.1351 kPa
291.3 K | 0.1465 kPa
291.8 K | 0.1543 kPa
293.2 K | 0.1571 kPa
293.3 K | 0.1763 kPa
294.2 K | 0.1744 kPa
296.2 K | 0.2041 kPa
296.3 K | 0.2 kPa
297.2 K | 0.2169 kPa
297.3 K | 0.2291 kPa
298.1 K | 0.2275 kPa
298.2 K | 0.2301 kPa
300.2 K | 0.2612 kPa
300.7 K | 0.2666 kPa and 0.2829 kPa
301.3 K | 0.2983 kPa
302.2 K | 0.3174 kPa
302.7 K | 0.3279 kPa
303 K | 0.3058 kPa
303.2 K | 0.3248 kPa
304.7 K | 0.3758 kPa
305.2 K | 0.3538 kPa and 0.3944 kPa
305.6 K | 0.3795 kPa
308 K | 0.4422 kPa
308.1 K | 0.4305 kPa
310.6 K | 0.5041 kPa
313.1 K | 0.6025 kPa
313.2 K | 0.6035 kPa
315.7 K | 0.711 kPa
316.4 K | 0.7274 kPa
318.2 K | 0.8426 kPa
320.8 K | 0.9968 kPa
323.2 K | 1.115 kPa
323.3 K | 1.128 kPa
325.8 K | 1.285 kPa
328.3 K | 1.481 kPa

CCCCCCN(CCCCCC)C(C)=O [N,N-dihexylacetamide]
Settings | vapor or sublimation pressure [kPa]
319.4 K | 0.0004
322.4 K | 0.00053
325.5 K | 0.00071
328.4 K | 0.00091
329.2 K | 0.00098
331.5 K | 0.00123
332.4 K | 0.0013
332.5 K | 0.00136
335.5 K | 0.0017
338.5 K | 0.00228
342.2 K | 0.00302
346.4 K | 0.0043
349.5 K | 0.0056
350.4 K | 0.00612
353.3 K | 0.00738
353.4 K | 0.00736
356.3 K | 0.00918
359.2 K | 0.01148
360.3 K | 0.01247
362.3 K | 0.01466
364.2 K | 0.01684

CCN(CC)C(C)=O [N,N-diethylacetamide]
Settings | vapor or sublimation pressure
293.2 K | 0.05427 kPa
295.7 K | 0.06498 kPa
298.1 K | 0.07907 kPa
300.7 K | 0.09611 kPa
303.3 K | 0.1134 kPa
308.2 K | 0.1595 kPa and 0.1564 kPa
310.6 K | 0.1826 kPa
313.1 K | 0.218 kPa
313.2 K | 0.22 kPa
318.2 K | 0.3145 kPa and 0.3097 kPa
323.1 K | 0.4179 kPa
323.3 K | 0.4212 kPa
325.7 K | 0.4988 kPa
328.2 K | 0.5921 kPa and 0.5695 kPa
330.7 K | 0.6838 kPa
333.1 K | 0.8078 kPa
333.2 K | 0.771 kPa
335.7 K | 0.882 kPa
338.3 K | 1.032 kPa

CCCCN(CCCC)C(C)=O [N,N-dibutylacetamide]
Settings | vapor or sublimation pressure
291.8 K | 0.0013 kPa
298.8 K | 0.00247 kPa
300.9 K | 0.00292 kPa
301.8 K | 0.00324 kPa
303.9 K | 0.00402 kPa
306.6 K | 0.00505 kPa
306.7 K | 0.00514 kPa
308.8 K | 0.00635 kPa
312.5 K | 0.00844 kPa
315.7 K | 0.0107 kPa
317.5 K | 0.01304 kPa
320.4 K | 0.01631 kPa
320.7 K | 0.01642 kPa
320.8 K | 0.01653 kPa
322.6 K | 0.01907 kPa
323.6 K | 0.02074 kPa
325.6 K | 0.02381 kPa
327.2 K | 0.02708 kPa
327.6 K | 0.0289 kPa
330.6 K | 0.03472 kPa and 0.03551 kPa
333.3 K | 0.04451 kPa
334.8 K | 0.04701 kPa
335.7 K | 0.05254 kPa
337.5 K | 0.05938 kPa
340.7 K | 0.0733 kPa
343.6 K | 0.09061 kPa
